Assay results: the supplement of paper PMC13207355

Legend:
Conditions in all cases: exposure time: 72 h
[1] = test system: E21 (patient-derived glioblastoma stem cells of mesenchymal subtype); assay: phenotypic distance (Euclidean, principal components) from DMSO controls (arbitrary units); higher = stronger morphological change
[2] = test system: E31 (patient-derived glioblastoma stem cells of proneural subtype); assay: as above
[3] = test system: E13 (patient-derived glioblastoma stem cells of classical subtype); assay: as above
[4] = test system: E57 (patient-derived glioblastoma stem cells of mesenchymal subtype); assay: as above
[5] = test system: E28 (patient-derived glioblastoma stem cells of classical subtype); assay: as above
[6] = test system: E34 (patient-derived glioblastoma stem cells of proneural subtype); assay: as above
[7] = test system: FT3469 (normal neural stem cell line); assay: as above
[8] = test system: E21; assay: surviving fraction (nuclei count normalised to DMSO); higher = more cells surviving (less toxic)
[9] = test system: E31; assay: as above
[10] = test system: E13; assay: as above
[11] = test system: E57; assay: as above
[12] = test system: E28; assay: as above
[13] = test system: E34; assay: as above
[14] = test system: FT3469; assay: as above
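For phenotypic distance (Euclidean, principal components) from DMSO controls in this document: cell Painting imaging in 384-well plates, CellProfiler features reduced to at least 20 principal components, Euclidean distance versus same-plate DMSO vehicle wells (0.1% v/v), median over six images per well.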
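For surviving fraction (nuclei count normalised to DMSO) in this document: nuclei counted by high-content imaging of Hoechst-stained cells in laminin-coated 384-well plates, relative to 0.1% DMSO vehicle wells, with staurosporine as cell-death control.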

COC(=O)C1=C(C)NC(C)=C(C(=O)OCC(C)C)C1c1ccccc1[N+](=O)[O-] (stereo unspecified) [Nisoldipine]
Conditions | phenotypic distance | surviving fraction
[1], 4.1 nM | 0.832 | –
[1], 12.3 nM | 0.907 | –
[1], 37 nM | 1.12 | –
[1], 111.1 nM | 1.2 | –
[1], 333.3 nM | 0.961 | –
[1], 1000 nM | 0.669 | –
[1], 3000 nM | 1.16 | –
[2], 4.1 nM | 0.922 | –
[2], 12.3 nM | 1.01 | –
[2], 37 nM | 1.26 | –
[2], 111.1 nM | 0.944 | –
[2], 333.3 nM | 0.976 | –
[2], 1000 nM | 1.03 | –
[2], 3000 nM | 1.31 | –
[3], 4.1 nM | 0.597 | –
[3], 12.3 nM | 0.435 | –
[3], 37 nM | 0.491 | –
[3], 111.1 nM | 3.02 | –
[3], 333.3 nM | 1.31 | –
[3], 1000 nM | 1.21 | –
[3], 3000 nM | 1.2 | –
[4], 4.1 nM | 0.873 | –
[4], 12.3 nM | 0.508 | –
[4], 37 nM | 0.494 | –
[4], 111.1 nM | 0.633 | –
[4], 333.3 nM | 0.615 | –
[4], 1000 nM | 0.552 | –
[4], 3000 nM | 0.478 | –
[5], 4.1 nM | 0.647 | –
[5], 12.3 nM | 0.706 | –
[5], 37 nM | 1.08 | –
[5], 111.1 nM | 0.981 | –
[5], 333.3 nM | 0.997 | –
[5], 1000 nM | 0.908 | –
[5], 3000 nM | 0.792 | –
[6], 4.1 nM | 2 | –
[6], 12.3 nM | 0.511 | –
[6], 37 nM | 0.835 | –
[6], 111.1 nM | 0.542 | –
[6], 333.3 nM | 0.889 | –
[6], 1000 nM | 0.614 | –
[6], 3000 nM | 1.06 | –
[7], 4.1 nM | 0.816 | –
[7], 12.3 nM | 1.12 | –
[7], 37 nM | 0.632 | –
[7], 111.1 nM | 0.827 | –
[7], 333.3 nM | 1.05 | –
[7], 1000 nM | 1.4 | –
[7], 3000 nM | 0.987 | –
[8], 4.1 nM | – | 0.82
[8], 12.3 nM | – | 0.905
[8], 37 nM | – | 0.945
[8], 111.1 nM | – | 0.892
[8], 333.3 nM | – | 0.945
[8], 1000 nM | – | 0.942
[8], 3000 nM | – | 0.857
[9], 4.1 nM | – | 0.972
[9], 12.3 nM | – | 0.914
[9], 37 nM | – | 0.886
[9], 111.1 nM | – | 0.892
[9], 333.3 nM | – | 0.949
[9], 1000 nM | – | 0.996
[9], 3000 nM | – | 0.938
[10], 4.1 nM | – | 0.894
[10], 12.3 nM | – | 1.08
[10], 37 nM | – | 0.924
[10], 111.1 nM | – | 0.974
[10], 333.3 nM | – | 0.947
[10], 1000 nM | – | 0.946
[10], 3000 nM | – | 0.883
[11], 4.1 nM | – | 0.904
[11], 12.3 nM | – | 0.985
[11], 37 nM | – | 0.923
[11], 111.1 nM | – | 0.969
[11], 333.3 nM | – | 0.929
[11], 1000 nM | – | 1.07
[11], 3000 nM | – | 0.96
[12], 4.1 nM | – | 0.944
[12], 12.3 nM | – | 0.957
[12], 37 nM | – | 0.921
[12], 111.1 nM | – | 0.86
[12], 333.3 nM | – | 0.843
[12], 1000 nM | – | 0.972
[12], 3000 nM | – | 0.9
[13], 4.1 nM | – | 0.949
[13], 12.3 nM | – | 0.965
[13], 37 nM | – | 1.04
[13], 111.1 nM | – | 0.931
[13], 333.3 nM | – | 0.853
[13], 1000 nM | – | 0.959
[13], 3000 nM | – | 0.955
[14], 4.1 nM | – | 0.965
[14], 12.3 nM | – | 0.938
[14], 37 nM | – | 1.04
[14], 111.1 nM | – | 0.966
[14], 333.3 nM | – | 0.965
[14], 1000 nM | – | 0.942
[14], 3000 nM | – | 0.896

C/C=C1\NC(=O)[C@H]2CSSCC/C=C/[C@H](CC(=O)N[C@H](C(C)C)C(=O)N2)OC(=O)[C@H](C(C)C)NC1=O [Romidepsin]
Conditions | phenotypic distance | surviving fraction
[1], 4.1 nM | 6.02 | –
[1], 12.3 nM | 7.55 | –
[1], 37 nM | 7.46 | –
[1], 111.1 nM | 6.75 | –
[1], 333.3 nM | 7.68 | –
[1], 1000 nM | 9.06 | –
[1], 3000 nM | 20.2 | –
[2], 4.1 nM | 12.3 | –
[2], 12.3 nM | 10.3 | –
[2], 37 nM | 11 | –
[2], 111.1 nM | 8.91 | –
[2], 333.3 nM | 7.47 | –
[2], 1000 nM | 18.1 | –
[2], 3000 nM | 7.62 | –
[3], 4.1 nM | 4.99 | –
[3], 12.3 nM | 4.79 | –
[3], 37 nM | 4.79 | –
[3], 111.1 nM | 5.03 | –
[3], 333.3 nM | 4.51 | –
[3], 1000 nM | 6.31 | –
[3], 3000 nM | 8.31 | –
[4], 4.1 nM | 8.58 | –
[4], 12.3 nM | 7.79 | –
[4], 37 nM | 9.5 | –
[4], 111.1 nM | 9.16 | –
[4], 333.3 nM | 8.37 | –
[4], 1000 nM | 9.9 | –
[4], 3000 nM | 11.1 | –
[5], 4.1 nM | 4.95 | –
[5], 12.3 nM | 5.55 | –
[5], 37 nM | 5.4 | –
[5], 111.1 nM | 4.65 | –
[5], 333.3 nM | 5.39 | –
[5], 1000 nM | 5.54 | –
[5], 3000 nM | 6.46 | –
[6], 4.1 nM | 8.64 | –
[6], 12.3 nM | 7.96 | –
[6], 37 nM | 9.03 | –
[6], 111.1 nM | 8.78 | –
[6], 333.3 nM | 7.71 | –
[6], 1000 nM | 8.57 | –
[6], 3000 nM | 7.26 | –
[7], 4.1 nM | 3.71 | –
[7], 12.3 nM | 2.82 | –
[7], 37 nM | 3.47 | –
[7], 111.1 nM | 2.86 | –
[7], 333.3 nM | 3.77 | –
[7], 1000 nM | 5.6 | –
[7], 3000 nM | 8.06 | –
[8], 4.1 nM | – | 0.102
[8], 12.3 nM | – | 0.0766
[8], 37 nM | – | 0.0713
[8], 111.1 nM | – | 0.0809
[8], 333.3 nM | – | 0.049
[8], 1000 nM | – | 0.00532
[8], 3000 nM | – | 0
[9], 4.1 nM | – | 0.00149
[9], 12.3 nM | – | 0.0134
[9], 37 nM | – | 0.00446
[9], 111.1 nM | – | 0.00892
[9], 333.3 nM | – | 0.00594
[9], 1000 nM | – | 0.00446
[9], 3000 nM | – | 0.00892
[10], 4.1 nM | – | 0.219
[10], 12.3 nM | – | 0.212
[10], 37 nM | – | 0.191
[10], 111.1 nM | – | 0.211
[10], 333.3 nM | – | 0.169
[10], 1000 nM | – | 0.0814
[10], 3000 nM | – | 0.00947
[11], 4.1 nM | – | 0.062
[11], 12.3 nM | – | 0.0535
[11], 37 nM | – | 0.0389
[11], 111.1 nM | – | 0.0558
[11], 333.3 nM | – | 0.0428
[11], 1000 nM | – | 0.0349
[11], 3000 nM | – | 0.00732
[12], 4.1 nM | – | 0.157
[12], 12.3 nM | – | 0.153
[12], 37 nM | – | 0.138
[12], 111.1 nM | – | 0.194
[12], 333.3 nM | – | 0.17
[12], 1000 nM | – | 0.17
[12], 3000 nM | – | 0.0691
[13], 4.1 nM | – | 0.302
[13], 12.3 nM | – | 0.292
[13], 37 nM | – | 0.271
[13], 111.1 nM | – | 0.359
[13], 333.3 nM | – | 0.286
[13], 1000 nM | – | 0.245
[13], 3000 nM | – | 0.1
[14], 4.1 nM | – | 0.237
[14], 12.3 nM | – | 0.267
[14], 37 nM | – | 0.31
[14], 111.1 nM | – | 0.274
[14], 333.3 nM | – | 0.321
[14], 1000 nM | – | 0.123
[14], 3000 nM | – | 0.0672
